Results as given in patent US20240336617A1, “Substituted Bimane Compounds and Methods of Use Thereof” (THE TRUSTEES OF THE UNIVERSITY OF PENNSYLVANIA, priority 2023, published 2024).

Assays:
[1] = pH measurements (absorption and emission); format: physicochemical; conditions: pH 2-11
Protocol: 10 mM stock solutions of 7h, 7j, and 7k in DMSO were individually diluted into ACN/PBS buffer (50:50 v/v) having different pH ranging from pH 2-11 with 25 μM (500 μL) of final concentration. For pH screening of 7h and 7j, PBS buffer solutions were prepared, then adjusted the pH 2, 4, and 7 by adding 6 M hydrochloric acid, pH 9 and 11 by adding 5 M sodium hydroxide. For pH screening of 7k, pH 4.4 and 7.4 were prepared by citric acid/phosphate buffer. Then, the absorption and fluorescence spectra were recorded by using Thermo Scientific Genesys 150 UV-Vis spectrometer, followed by PTI QuantaMaster™ 40 fluorescence spectrometer by excitation with maximum absorption wavelength.
pH measurements. 10 mM stock solutions of 5h and 5j in DMSO were individually diluted into ACN/PBS buffer (50:50 v/v) having different pH ranging from pH 2-11 with 25 µM (500 μL) of final concentration. For pH screening of 5h and 5j, PBS buffer solutions were prepared, then adjusted the pH 2, 4, and 7 by adding 6 M hydrochloric acid, pH 9 and 11 by adding 5 M sodium hydroxide. Then, we have recorded the absorption and fluorescence spectra by using Thermo Scientific Genesys 150 UV-Vis spectrometer, followed by PTI QuantaMaster™ 40 fluorescence spectrometer by excitation with maximum absorption wavelength.

[2] = molecular target: bovine serum albumin (BSA) (Bos taurus, UniProt P02769); experiment: Fluorescence in the presence of BSA; format: binding
Chain of bovine serum albumin (BSA) (P02769 25-607): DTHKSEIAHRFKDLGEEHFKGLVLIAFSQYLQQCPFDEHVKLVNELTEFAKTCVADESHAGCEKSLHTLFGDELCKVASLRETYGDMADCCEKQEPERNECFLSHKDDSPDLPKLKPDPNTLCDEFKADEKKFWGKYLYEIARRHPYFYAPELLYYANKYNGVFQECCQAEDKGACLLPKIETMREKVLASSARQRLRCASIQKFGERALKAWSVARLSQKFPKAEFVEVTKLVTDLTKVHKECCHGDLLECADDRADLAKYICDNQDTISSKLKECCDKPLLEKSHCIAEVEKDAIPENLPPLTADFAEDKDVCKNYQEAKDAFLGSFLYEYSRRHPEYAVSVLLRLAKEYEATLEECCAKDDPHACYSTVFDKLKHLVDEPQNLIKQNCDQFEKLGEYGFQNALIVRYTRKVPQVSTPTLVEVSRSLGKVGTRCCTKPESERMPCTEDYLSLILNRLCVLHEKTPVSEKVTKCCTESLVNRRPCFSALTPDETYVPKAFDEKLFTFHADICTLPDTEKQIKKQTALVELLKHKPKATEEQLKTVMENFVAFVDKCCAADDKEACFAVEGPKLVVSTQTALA

Cc1c(C)n2c(/C=C/c3ccc(N)cc3)c(C)c(=O)n2c1=O [Compound 7j, (E)-3-(4-aminostyryl)-2,5,6-trimethyl-1H,7H-pyrazolo[1,2-a]pyrazole-1,7-dione]
pH effects on absorption and emission [1]: blue-shifted absorption and emission at pH 2

Cc1c(C)n2c(/C=C/c3ccc(N(C)C)cc3)c(C)c(=O)n2c1=O [Compound 7l, (E)-3-(4-(dimethylamino)styryl)-2,5,6-trimethyl-1H,7H-pyrazolo[1,2-a]pyrazole-1,7-dione]
fluorescence turn on with BSA [2]: turn-on was possible | λmax (λem) with BSA ([2]; 10 μM probe, BSA 50 μM, excitation 418 nm): 555 nm
